Experimental data from ChEMBL document CHEMBL1201862, “PubChem BioAssay data set” (2004).
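Protocol summary: plate cells (96-well), add compound at 5 concentrations, incubate 48 h, interpolate endpoints linearly. Here, GI50 denotes the concentration required for 50% inhibition of growth.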 Calls of active or inactive are those of the source. Cut-off read from the data, not from the text of the source: active = GI50 up to about 1.1 µM and inactive = higher.

Experiments:
Test in all cases: NCI anticancer screen, dose series, 48 h
OVCAR-3 = test system: OVCAR-3
A498 = test system: A498
IGROV-1 = test system: IGROV-1
RPMI-8226 = test system: RPMI-8226
MDA-MB-231 = test system: MDA-MB-231
BT-549 = test system: BT-549
NCI/ADR-RES = test system: NCI/ADR-RES
RXF 393 = test system: RXF 393
OVCAR-5 = test system: OVCAR-5
DU-145 = test system: DU-145
SK-MEL-5 = test system: SK-MEL-5
A549 = test system: A549
NCI-H460 = test system: NCI-H460
Hs-578T = test system: Hs-578T
M14 = test system: M14
SNB-75 = test system: SNB-75
CCRF-CEM = test system: CCRF-CEM
NCI-H23 = test system: NCI-H23
HCC 2998 = test system: HCC 2998

| Structure (SMILES) | GI50 (OVCAR-3) | GI50 (A498) | GI50 (IGROV-1) | GI50 (RPMI-8226) | GI50 (MDA-MB-231) | GI50 (BT-549) | GI50 (NCI/ADR-RES) | GI50 (RXF 393) | GI50 (OVCAR-5) | GI50 (DU-145) | GI50 (SK-MEL-5) | GI50 (A549) | GI50 (NCI-H460) | GI50 (Hs-578T) | GI50 (M14) | GI50 (SNB-75) | GI50 (CCRF-CEM) | GI50 (NCI-H23) | GI50 (HCC 2998) |
| --- | --- | --- | --- | --- | --- | --- | --- | --- | --- | --- | --- | --- | --- | --- | --- | --- | --- | --- | --- |
| CC(C)c1ccccc1[S+]([O-])c1ccccc1C(C)(C)O (stereo not drawn) | > 100 µM (inactive) | 20 µM (inactive) | > 100 µM (inactive) | 42.6 µM (inactive) | 88.9 µM (inactive) | > 100 µM (inactive) | 64.6 µM (inactive) | > 100 µM (inactive) | 56.2 µM (inactive) | > 100 µM (inactive) | 27.2 µM (inactive) | 44.2 µM (inactive) | 30.8 µM (inactive) | 50.4 µM (inactive) | > 100 µM (inactive) | 32.3 µM (inactive) | > 100 µM (inactive) | > 100 µM (inactive) | – |
| O=C1CSCC(=O)Nc2ccccc2N1 | > 100 µM (inactive) | > 100 µM (inactive) | > 100 µM (inactive) | > 100 µM (inactive) | > 100 µM (inactive) | > 100 µM (inactive) | > 100 µM (inactive) | > 100 µM (inactive) | > 100 µM (inactive) | > 100 µM (inactive) | > 100 µM (inactive) | > 100 µM (inactive) | > 100 µM (inactive) | > 100 µM (inactive) | > 100 µM (inactive) | – | > 100 µM (inactive) | > 100 µM (inactive) | – |
| CN(c1ccc(Cl)cc1)S(=O)(=O)c1ccccc1 | 64.3 µM (inactive) | – | > 100 µM (inactive) | 42.3 µM (inactive) | 35.4 µM (inactive) | 32 µM (inactive) | 36 µM (inactive) | 11.3 µM (inactive) | 52.8 µM (inactive) | > 100 µM (inactive) | 18.7 µM (inactive) | 72.4 µM (inactive) | 43.1 µM (inactive) | > 100 µM (inactive) | 45.1 µM (inactive) | 61.4 µM (inactive) | 46.2 µM (inactive) | 30.8 µM (inactive) | 84.1 µM (inactive) |
| Clc1ccc(Cc2nc3ccccc3nc2-c2cccc(Cl)c2)cc1 | 4.21 µM (inactive) | – | 1.95 µM (inactive) | 0.405 µM (active) | 2.47 µM (inactive) | 4.49 µM (inactive) | 3.1 µM (inactive) | 2.04 µM (inactive) | 7.38 µM (inactive) | 14.2 µM (inactive) | 4.91 µM (inactive) | 15.6 µM (inactive) | 16.3 µM (inactive) | 3.47 µM (inactive) | 2.43 µM (inactive) | – | 0.0311 µM (active) | 13.5 µM (inactive) | 1.85 µM (inactive) |
| Cc1n[nH]c(=O)n1N1C(=O)c2ccccc2C1=O | > 100 µM (inactive) | > 100 µM (inactive) | > 100 µM (inactive) | – | > 100 µM (inactive) | > 100 µM (inactive) | > 100 µM (inactive) | – | > 100 µM (inactive) | > 100 µM (inactive) | > 100 µM (inactive) | > 100 µM (inactive) | > 100 µM (inactive) | > 100 µM (inactive) | > 100 µM (inactive) | 26.4 µM (inactive) | > 100 µM (inactive) | > 100 µM (inactive) | > 100 µM (inactive) |
| Cc1ccnc(NC(NC(=O)c2ccccc2)(C(F)(F)F)C(F)(F)F)c1 | > 100 µM (inactive) | – | > 100 µM (inactive) | 18.2 µM (inactive) | > 100 µM (inactive) | > 100 µM (inactive) | > 100 µM (inactive) | > 100 µM (inactive) | > 100 µM (inactive) | > 100 µM (inactive) | > 100 µM (inactive) | > 100 µM (inactive) | – | > 100 µM (inactive) | > 100 µM (inactive) | > 100 µM (inactive) | 75.9 µM (inactive) | > 100 µM (inactive) | > 100 µM (inactive) |
| O=[N+]([O-])c1cc(/N=N/c2c(O)ccc3cc(S(=O)(=O)O)ccc23)c(O)c([N+](=O)[O-])c1 | 63.1 µM (inactive) | – | > 100 µM (inactive) | > 100 µM (inactive) | > 100 µM (inactive) | > 100 µM (inactive) | > 100 µM (inactive) | > 100 µM (inactive) | > 100 µM (inactive) | > 100 µM (inactive) | > 100 µM (inactive) | > 100 µM (inactive) | – | > 100 µM (inactive) | > 100 µM (inactive) | > 100 µM (inactive) | 18.9 µM (inactive) | > 100 µM (inactive) | – |
| COc1ccccc1C1SCC(=O)N1c1ccc(-c2ccc(-n3c(-c4ccccc4)nc4ccccc4c3=O)cc2)cc1 (stereo not drawn) | > 100 µM (inactive) | > 100 µM (inactive) | > 100 µM (inactive) | > 100 µM (inactive) | > 100 µM (inactive) | > 100 µM (inactive) | > 100 µM (inactive) | – | > 100 µM (inactive) | > 100 µM (inactive) | > 100 µM (inactive) | > 100 µM (inactive) | > 100 µM (inactive) | > 100 µM (inactive) | > 100 µM (inactive) | > 100 µM (inactive) | > 100 µM (inactive) | > 100 µM (inactive) | > 100 µM (inactive) |
| COC(=O)c1cc2c(cc1CC1Cc3cc4c(cc3C1=O)CCC4)CCC2 (stereo not drawn) | 57.4 µM (inactive) | 56 µM (inactive) | 97.5 µM (inactive) | 25 µM (inactive) | 53.8 µM (inactive) | 40.1 µM (inactive) | 38.1 µM (inactive) | – | > 100 µM (inactive) | > 100 µM (inactive) | 17.6 µM (inactive) | 40.3 µM (inactive) | 40 µM (inactive) | 15 µM (inactive) | 66.8 µM (inactive) | 54.1 µM (inactive) | 21.5 µM (inactive) | 41.6 µM (inactive) | 43.7 µM (inactive) |
| O/N=N\c1nc(-c2ccccn2)nc2ccccc12 | 0.743 µM (active) | 32.4 µM (inactive) | 17 µM (inactive) | – | 13.3 µM (inactive) | 20.8 µM (inactive) | 7.78 µM (inactive) | – | 27.1 µM (inactive) | 15 µM (inactive) | 2.77 µM (inactive) | 45.3 µM (inactive) | 2.49 µM (inactive) | > 100 µM (inactive) | 4.09 µM (inactive) | 20.3 µM (inactive) | 0.441 µM (active) | 35.2 µM (inactive) | 9.71 µM (inactive) |
| O=C(O)CCC[C@]1(O)O[C@@]2(CCCC2=O)[C@]2(O)CCC[C@@]21O | > 100 µM (inactive) | > 100 µM (inactive) | > 100 µM (inactive) | > 100 µM (inactive) | > 100 µM (inactive) | > 100 µM (inactive) | > 100 µM (inactive) | > 100 µM (inactive) | > 100 µM (inactive) | > 100 µM (inactive) | > 100 µM (inactive) | > 100 µM (inactive) | > 100 µM (inactive) | > 100 µM (inactive) | > 100 µM (inactive) | > 100 µM (inactive) | – | > 100 µM (inactive) | – |
| c1ccc(NN(Cc2cnccn2)c2ccccc2)cc1 | 63.4 µM (inactive) | 28.8 µM (inactive) | 83.2 µM (inactive) | 55.7 µM (inactive) | 76.9 µM (inactive) | > 100 µM (inactive) | 40.5 µM (inactive) | > 100 µM (inactive) | > 100 µM (inactive) | > 100 µM (inactive) | 40.2 µM (inactive) | 42.2 µM (inactive) | 91.8 µM (inactive) | > 100 µM (inactive) | 90.2 µM (inactive) | > 100 µM (inactive) | 10.5 µM (inactive) | 83 µM (inactive) | – |
| Cc1ccccc1N/N=C1\C(=O)Nc2ccccc21 | > 100 µM (inactive) | – | 0.0132 µM (active) | > 100 µM (inactive) | > 100 µM (inactive) | > 100 µM (inactive) | > 100 µM (inactive) | > 100 µM (inactive) | > 100 µM (inactive) | > 100 µM (inactive) | > 100 µM (inactive) | > 100 µM (inactive) | > 100 µM (inactive) | > 100 µM (inactive) | > 100 µM (inactive) | > 100 µM (inactive) | > 100 µM (inactive) | > 100 µM (inactive) | > 100 µM (inactive) |
| Cc1ccc2c(=O)cc(-c3ccc(-c4ccccc4)s3)[nH]c2n1 | 24.8 µM (inactive) | 14.2 µM (inactive) | 34.9 µM (inactive) | 4.53 µM (inactive) | 39.7 µM (inactive) | > 33.6 µM (inactive) | > 57.1 µM (inactive) | > 59.8 µM (inactive) | > 100 µM (inactive) | > 100 µM (inactive) | 2.87 µM (inactive) | 58.6 µM (inactive) | > 59.7 µM (inactive) | > 46.7 µM (inactive) | > 100 µM (inactive) | 72.4 µM (inactive) | > 25.2 µM (inactive) | 22.1 µM (inactive) | – |
| C1=Cc2ccccc2C1.C=C(C)c1ccccc1.[N-]=[N+]=Nc1ccccc1 | > 100 µM (inactive) | > 100 µM (inactive) | > 100 µM (inactive) | 80 µM (inactive) | > 100 µM (inactive) | > 100 µM (inactive) | > 100 µM (inactive) | > 100 µM (inactive) | > 100 µM (inactive) | > 100 µM (inactive) | > 100 µM (inactive) | > 100 µM (inactive) | 90.4 µM (inactive) | 39.1 µM (inactive) | > 100 µM (inactive) | 49 µM (inactive) | – | > 100 µM (inactive) | – |
| O=CN1CCN(CC(O)CN2CCCCC2)CC1 (stereo not drawn) | > 100 µM (inactive) | > 100 µM (inactive) | > 100 µM (inactive) | > 100 µM (inactive) | > 100 µM (inactive) | > 100 µM (inactive) | > 100 µM (inactive) | > 100 µM (inactive) | > 100 µM (inactive) | > 100 µM (inactive) | > 100 µM (inactive) | > 100 µM (inactive) | – | > 100 µM (inactive) | > 100 µM (inactive) | > 100 µM (inactive) | > 100 µM (inactive) | > 100 µM (inactive) | – |
